Test results reported in patent US11364242B2, “Treatment agents for inhibiting HIV and cancer in HIV infected patients” (UNIVERSITY OF MARYLAND, BALTIMORE, priority 2015, dated 2022).
Entries after “also recorded” stand apart in the source; their conditions may differ.

Tests used:
[1] = system: X4 HIV (HXB2); assay: Real-time PCR of early reverse transcription products and integrated HIV DNA in infected PBLs; format: cell-based; conditions: PBLs from two donors
Protocol: Activated PBLs were infected with R5 and X4 HIV strains using a MOI of 0.01. Infected cells were cultured in the presence of IL-2 and different concentrations of INK128. Cell aliquots were collected at 16 and 72 hours for analyses of early products of reverse transcription and of integration, respectively, by real time PCR. Detection of early products of reverse transcription was done with primers specific for the R/U5 region (60). For detection of integrated HIV DNA, a real-time nested Alu-HIV PCR assay was used as previously described (61, 62), with the modifications described herein.
DNA was isolated using Miniblood kit (Qiagen™). PCR amplification was performed using Quantitect SYBR Green™ PCR Kit (Qiagen™) in a LightCycler™ (Biorad™). Detection of early products of reverse transcription was done in reactions containing 100 ng of DNA and the primer pair 5′-[…]-3′ (SEQ ID NO. 1) and 5′-[…]-3′ (SEQ ID NO. 2) (R/U5 region) (60). […] Amplified products were analyzed by denaturation/renaturation to verify the specific Tm. The PCR cycle at which the signal entered the exponential range was used for quantification, and HIV copy numbers were corrected for those of α-tubulin. […] As a standard curve for relative quantification of integrated DNA, the Alu-gag was first run using serial dilutions of DNA isolated from HIV infected PBLs (diluted in HIV-negative DNA).

[2] = system: HIV-1 BaL; assay: Antiretroviral potency with and without INK128 in PBLs infected with HIV BaL; format: cell-based; conditions: two donors
Protocol: PBLs were separated from buffy coats by density centrifugation over Ficoll-Hypaque (Sigma™), and activated by culture in the presence of 1 μg/mL anti-human CD3 antibody (clone x35, Fisher Scientific™) and 2 μg/mL anti-human CD28 antibody (Clone CD28.6, eBioscience™) for 3 days. Activated cells were infected by incubation with virus at a multiplicity of infection (MOI) of 0.001 for 2 hours. Infected cells were washed three times with PBS and cultured in 5% CO2 at 37° C., in RPMI/10% FBS supplemented with 100 units/mL IL-2 (Roche™) and antiviral drugs, in 96-well flat-bottom plates at a density of […] PBLs per 200 μL. Following 3 d of culture, half of the medium was replaced with fresh medium containing IL-2 and antiviral drugs. On day 7, viral replication was measured by p24 ELISA (Coulter) in culture supernatants and cell viability was measured by MTT assays.
Available ARTs target the HIV lifecycle steps of entry, reverse transcription, integration, and maturation. […] In addition, by targeting virus transcription, INK128 could have favorable interactions with inhibitors of reverse transcription (RTIs), integration (Hs), and protease (PIs). […] We conducted these assays in activated PBLs infected with R5 HIV BaL and treated with various dilutions of Maraviroc (CCR5 antagonist), Efavirenz (RTI), Raltegravir (II), and Indinavir (PI). INK128 was used at low concentrations (<EC50) to better detect changes in ART potency (Table 7).
Prism software. Data are from 2 experiments, each with a different donor.

[3] = Tolerability in huPBL-NSG mice (body weight, wasting, death)

Question: For CC(C)n1nc(-c2ccc3oc(N)nc3c2)c2c(N)ncnc21 [INK128, 5-(4-amino-1-propan-2-ylpyrazolo[3,4-d]pyrimidin-3-yl)-1,3-benzoxazol-2-amine], which R/U5 transcripts ([1]; 16 hours) is on record?
Answer: did not decrease

Question: And the integrated provirus ([1]; 72 hours)?
Answer: did not decrease

Question: What about the “effect on the potency of the other tested ARTs (Efavirenz, Raltegravir, Indinavir)” value [2] of the same compound?
Answer: no negative effect

Question: And the “enhancement of the antiviral potency of Maraviroc” value [2]?
Answer: five- to six fold

Question: And the “effect on weight of the animals” value ([3]; 1-5 mg/kg once daily i.p. for 14 days)?
Answer: no adverse effects; also recorded: without obvious toxicity

Question: What about the “toxicity in pilot experiment” value ([3]; uninfected huPBL-NSG mice, 7 mg/kg daily i.p. for 2 wk) of the same compound?
Answer: wasting and death
